Measurements reported in PubChem BioAssay (NCI).
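Following 48 hours of exposure in 96-well plates, responses at five concentrations were used to interpolate endpoints linearly. TGI marks complete inhibition of growth.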

Columns and labels:
Assay in all cases: NCI anticancer screen, dose series, 48 h
[1] = system: HOP-92 NSCLC
[2] = system: T-47D breast
[3] = system: NCI-H460 lung
[4] = system: UO-31 renal
[5] = system: NCI-H23 lung
[6] = system: SR leukemia
[7] = system: RPMI-8226 leukemia
[8] = system: DU-145 prostate
[9] = system: A549 NSCLC
[10] = system: RXF 393 renal
[11] = system: OVCAR-8 ovarian
[12] = system: HCT-15 colon
[13] = system: SW-620 colon
[14] = system: MDA-N
[15] = system: SF-295 CNS
[16] = system: COLO 205 colon
[17] = system: NCI-H522 lung
[18] = system: HT29 colon
[19] = system: HCC-2998 colon
[20] = system: HS 578T breast
[21] = system: MDA-MB-435
[22] = system: 786-0 renal
[23] = system: MOLT-4 leukemia
[24] = system: IGROV1 ovarian
[25] = system: HCT-116 colon
[26] = system: OVCAR-4 ovarian
[27] = system: MDA-MB-231 breast
[28] = system: MALME-3M melanoma
[29] = system: NCI-H226 lung
[30] = system: LOX IMVI melanoma
[31] = system: EKVX NSCLC
[32] = system: NCI/ADR-RES ovarian
[33] = system: OVCAR-5 ovarian
[34] = system: A498 renal
[35] = system: KM12 colon
[36] = system: UACC-62 melanoma
[37] = system: SK-MEL-2 melanoma
[38] = system: OVCAR-3 ovarian
[39] = system: MCF7 breast
[40] = system: SF-539 CNS
[41] = system: SN12C renal
[42] = system: HOP-62 NSCLC
[43] = system: K-562 leukemia
[44] = system: SK-MEL-28 melanoma
[45] = system: PC-3 prostate
[46] = system: UACC-257 melanoma
[47] = system: SNB-75 CNS
[48] = system: CAKI-1 renal
[49] = system: ACHN renal
[50] = system: BT-549 breast
[51] = system: U251 CNS
[52] = system: CCRF-CEM leukemia
[53] = system: SK-MEL-5 melanoma
[54] = system: HL-60(TB) leukemia
[55] = system: M14 melanoma
[56] = system: TK-10 renal
[57] = system: SK-OV-3 ovarian
[58] = system: SNB-19 CNS

Q: With `Nc1nccc(NCC2(CO)CC(OCc3ccccc3)C2)n1` (stereo unspecified) as the compound, how does the TGI [1] read?
A: > 100 µM

Q: What about the TGI [2] of the same compound?
A: 36.2 µM

Q: What about the TGI [3] of the same compound?
A: > 100 µM

Q: And the TGI [4]?
A: > 100 µM

Q: What about the TGI [5] of the same compound?
A: > 100 µM

Q: What about the TGI [6] of the same compound?
A: > 100 µM

Q: And the TGI [7]?
A: > 100 µM

Q: What about the TGI [8] of the same compound?
A: > 100 µM

Q: And the TGI [9]?
A: > 100 µM

Q: And the TGI [10]?
A: > 100 µM

Q: And the TGI [11]?
A: > 100 µM

Q: And the TGI [12]?
A: > 100 µM

Q: What about the TGI [13] of the same compound?
A: > 100 µM

Q: What about the TGI [14] of the same compound?
A: > 100 µM

Q: And the TGI [15]?
A: > 100 µM

Q: And the TGI [16]?
A: > 100 µM

Q: What about the TGI [17] of the same compound?
A: > 100 µM

Q: What about the TGI [18] of the same compound?
A: > 100 µM

Q: What about the TGI [19] of the same compound?
A: > 100 µM

Q: What about the TGI [20] of the same compound?
A: > 100 µM

Q: And the TGI [21]?
A: > 100 µM

Q: What about the TGI [22] of the same compound?
A: > 100 µM

Q: And the TGI [23]?
A: > 100 µM

Q: What about the TGI [24] of the same compound?
A: > 100 µM

Q: What about the TGI [25] of the same compound?
A: > 100 µM

Q: What about the TGI [26] of the same compound?
A: > 100 µM

Q: What about the TGI [27] of the same compound?
A: > 100 µM

Q: What about the TGI [28] of the same compound?
A: > 100 µM

Q: And the TGI [29]?
A: > 100 µM

Q: And the TGI [30]?
A: > 100 µM

Q: What about the TGI [31] of the same compound?
A: > 100 µM

Q: And the TGI [32]?
A: > 100 µM

Q: And the TGI [33]?
A: > 100 µM

Q: And the TGI [34]?
A: > 100 µM

Q: And the TGI [35]?
A: > 100 µM

Q: And the TGI [36]?
A: > 100 µM

Q: And the TGI [37]?
A: > 100 µM

Q: What about the TGI [38] of the same compound?
A: > 100 µM

Q: And the TGI [39]?
A: > 100 µM

Q: What about the TGI [40] of the same compound?
A: > 100 µM

Q: And the TGI [41]?
A: > 100 µM

Q: What about the TGI [42] of the same compound?
A: > 100 µM

Q: What about the TGI [43] of the same compound?
A: > 100 µM

Q: What about the TGI [44] of the same compound?
A: > 100 µM

Q: And the TGI [45]?
A: > 100 µM

Q: What about the TGI [46] of the same compound?
A: > 100 µM

Q: What about the TGI [47] of the same compound?
A: > 100 µM

Q: What about the TGI [48] of the same compound?
A: > 100 µM

Q: What about the TGI [49] of the same compound?
A: > 100 µM

Q: What about the TGI [50] of the same compound?
A: > 100 µM

Q: What about the TGI [51] of the same compound?
A: > 100 µM

Q: What about the TGI [52] of the same compound?
A: > 100 µM

Q: And the TGI [53]?
A: > 100 µM

Q: And the TGI [54]?
A: > 100 µM

Q: Which results are given for `COc1ccc(-c2c(-c3ccccc3)c(C)c3ccccn23)cc1`?
A: TGI [1]: > 100 µM; TGI [55]: > 100 µM; TGI [56]: > 100 µM; TGI [2]: > 100 µM; TGI [3]: > 100 µM; TGI [4]: > 100 µM; TGI [5]: > 100 µM; TGI [6]: > 100 µM; TGI [7]: > 100 µM; TGI [8]: > 100 µM; TGI [9]: > 100 µM; TGI [11]: > 100 µM; TGI [12]: > 100 µM; TGI [13]: > 100 µM; TGI [14]: > 100 µM; TGI [15]: > 100 µM; TGI [16]: > 100 µM; TGI [17]: > 100 µM; TGI [18]: > 100 µM; TGI [19]: > 100 µM; TGI [20]: > 100 µM; TGI [21]: > 100 µM; TGI [22]: > 100 µM; TGI [23]: > 100 µM; TGI [24]: > 100 µM; TGI [25]: > 100 µM; TGI [26]: > 100 µM; TGI [57]: > 100 µM; TGI [27]: > 100 µM; TGI [28]: > 100 µM; TGI [29]: > 100 µM; TGI [30]: > 100 µM; TGI [31]: > 100 µM; TGI [32]: > 100 µM; TGI [33]: > 100 µM; TGI [34]: > 100 µM; TGI [35]: > 100 µM; TGI [36]: > 100 µM; TGI [37]: > 100 µM; TGI [38]: > 100 µM; TGI [39]: > 100 µM; TGI [40]: > 100 µM; TGI [41]: > 100 µM; TGI [42]: > 100 µM; TGI [43]: > 100 µM; TGI [44]: > 100 µM; TGI [45]: > 100 µM; TGI [46]: > 100 µM; TGI [47]: > 100 µM; TGI [48]: > 100 µM; TGI [49]: > 100 µM; TGI [50]: > 100 µM; TGI [51]: > 100 µM; TGI [58]: > 100 µM; TGI [52]: > 100 µM; TGI [53]: > 100 µM; TGI [54]: > 100 µM
